Columns and labels:
[1] = tested on: intestinal mucosa of SBS patients; experiment: Morphological analysis of intestinal biopsies (villus height, crypt depth, mitotic index); format: in vivo, human
Procedure: Endoscopic examinations were performed in each subject at the completion of baseline, treatment and follow-up phases. All tissue samples for measurement of villus height and crypt depth were prepared and analyzed in a blinded fashion by the same pathologist. Villus height and crypt depth were measured using light microscopy (eyepiece micrometer) as the mean of ten well-oriented villi and crypts. The number of mitotic figures per 100 crypt epithelial cells was calculated.

[2] = Body weight following teduglutide treatment; format: in vivo, human; details: not significant (p=0.120)
[3] = jejunum / small intestine biopsies, Group 2 end-jejunostomy

SMILES: CC[C@H](C)[C@H](NC(=O)[C@H](Cc1ccccc1)NC(=O)[C@H](CC(=O)O)NC(=O)[C@H](CCCNC(=N)N)NC(=O)[C@H](C)NC(=O)[C@H](C)NC(=O)[C@H](CC(C)C)NC(=O)[C@H](CC(N)=O)NC(=O)[C@H](CC(=O)O)NC(=O)[C@H](CC(C)C)NC(=O)[C@@H](NC(=O)[C@@H](NC(=O)[C@H](CC(N)=O)NC(=O)[C@H](CCSC)NC(=O)[C@H](CCC(=O)O)NC(=O)[C@H](CC(=O)O)NC(=O)[C@H](CO)NC(=O)[C@H](Cc1ccccc1)NC(=O)[C@H](CO)NC(=O)CNC(=O)[C@H](CC(=O)O)NC(=O)CNC(=O)[C@@H](N)Cc1c[nH]cn1)[C@@H](C)O)[C@@H](C)CC)C(=O)N[C@@H](CC(N)=O)C(=O)N[C@@H](Cc1c[nH]c2ccccc12)C(=O)N[C@@H](CC(C)C)C(=O)N[C@H](C(=O)N[C@@H](CCC(N)=O)C(=O)N[C@H](C(=O)N[C@@H](CCCCN)C(=O)N[C@H](C(=O)N[C@H](C(=O)N[C@@H](CC(=O)O)C(=O)O)[C@@H](C)O)[C@@H](C)CC)[C@@H](C)O)[C@@H](C)CC [teduglutide, [Gly2]hGLP-2]
- sets of colonic biopsies with increased crypt depth ([1]; Group 3 colon-in-continuity): four of five
- increase in mitotic index (colonic biopsies) ([1]; colonic biopsies, Group 3 colon-in-continuity, not significant (p=0.170)): 76±112%
- mean increase in colonic crypt depth ([1]; colonic biopsies, Group 3 colon-in-continuity, not significant (p=0.330)): 13±22%
- increase in crypt depth [1, 3]: 22±18%
- increase in mitotic index [1, 3]: 115±108%
- increase in villus height [1, 3]: 38±45%
- number of patients with significant histological changes in the jejunum ([1]; of the 8 Group 2 patients who were biopsied): 7
- increase in body weight following teduglutide treatment [2]: 0.9 ± 2.1 kg

From patent US9999656B2, “Treatment of short bowel syndrome patients with colon-in-continuity” (Shire-NPS Pharmaceuticals, Inc., priority 2004, dated 2018)
